Experimental data as given in patent US11033609B2, “Cyclic acetylcholinesterase C-terminal peptide in the treatment or prevention of cancer or metastasis” (priority 2014, dated 2021).
Where a SMILES comes first, the peptide text is derived from it.

Tests used:
Format in all cases: cell-based, human
KG1a cells [1] = test: Annexin V/propidium iodide in vitro apoptosis (cytotoxicity) assay; conditions: 72 h
Experimental: (§1) The acute myeloid leukaemia (AML) KG1a cell line was maintained in RPMI medium (Invitrogen) supplemented with 100 units/ml penicillin, 100 μg/ml streptomycin and 20% foetal calf serum. The multiple myeloma (MM) cell line H929, the two breast cancer cell lines (MCF7 and MDA-MB-231), the MEC-1 cells and the primary chronic lymphocytic leukaemia cells were maintained in RPMI medium supplemented with 100 units/ml penicillin, 100 μg/ml streptomycin and 10% foetal calf serum. The media used contained acetylcholine but after the initial set of experiments an additional 100 μM of acetylcholine was added to the culture media. Cells were subsequently aliquoted (10^6 cells/ml) into 24-well plates and were incubated at 37° C. in a humidified 5% carbon dioxide atmosphere for 72 h in the presence of the peptides (T15, T30, NBP-14 and the combination of T30+NBP-14) at concentrations between 0.1 nM and 1 μM. In addition, control cultures were carried out to which no peptide was added. Cells were subsequently harvested by centrifugation and were analysed by flow cytometry using the Annexin V assay or were counted using a Vi-Cell XR cell viability counter (Beckman Coulter).
(§2) Cultured cells were harvested by centrifugation and then resuspended in 195 of calcium-rich buffer. Subsequently, 5 μl of Annexin V (eBiosciences) was added to the cell suspension and cells were incubated in the dark for 10 mins prior to washing. Cells were finally resuspended in 190 μl of calcium-rich buffer together with 10 μl of propidium iodide. Apoptosis was assessed by dual-colour immunofluorescent flow cytometry using an Accuri C6 flow cytometer and data were analysed using CFlow software (BD Biosciences).
(§3) The in vitro drug sensitivity was measured using the Annexin V/propidium iodide assay. Comparison of the effects of each peptide alone or in combination in the various cell lines and primary cells are shown below.

[2] = system: normal B- and T-lymphocytes; test: Annexin V/propidium iodide apoptosis assay in normal cells; conditions: B- and T-lymphocytes from normal healthy volunteers
Experimental: as §2, §3
In order to assess the effects of the acetylcholinesterase-derived peptides on normal (non-malignant) cells, B- and T-lymphocytes were isolated from normal healthy volunteers (n=3).

H929 cells [3] = test: Transwell migration assay; conditions: H929, 1 μM NBP-14 vs baseline control
Experimental: (§4) In vitro migration assays were performed by using 6.0 μm pore size transwell migration plates (Costar, Corning, N.Y.). A total of 10^6 CLL cells in 500 μl of RPMI media were added to the upper chamber of the transwell insert. 100 ng/ml of CXCL12 was added to the baso-lateral chamber for all the cell types tested apart from KG1a cells. […] Instead, media containing 10% foetal calf serum was added to the baso-lateral chamber in these experiments. The plates were incubated for 24 h at 37° C. in 5% CO2 in the presence of the peptides (T15, T30, NBP-14 and the combination of T30+NBP-14) at concentrations between 0.1 nM and 10 μM. In addition, control cultures were carried out to which no peptide was added. Cells were subsequently harvested by centrifugation and were analysed by flow cytometry using an Accuri C6 flow cytometer (BD). None of the conditions tested induced significant cell death in the cultures. Migration of CLL cells was determined by counting cells that migrated to the lower (baso-lateral) chamber of the transwell plate and then expressed as a percentage of the total number of cells initially added to the upper (apical) chamber.

MEC-1 cells [4] = test: Transwell migration assay; conditions: MEC-1, 1 μM NBP-14 vs baseline control
Experimental: as §4

JJN3 cells [5] = test: In vitro proliferation; conditions: JJN3, concentrations of peptide >0.1 μM
H929 cells [6] = test: In vitro proliferation (Vi-Cell XR viable cell count); conditions: H929, concentrations above 0.1 μM
Experimental: as §1
(§5) Cultured cells were harvested by centrifugation and were then counted using a Vi-Cell XR cell viability counter. The number of viable cells in each culture was then expressed as a percentage of the viable cells in the control cultures (no peptide).

KG1a cells [7] = test: as above; conditions: concentrations above 0.1 μM
Experimental: as §1, §5

MDA-MB-231 cells [8] = test: as above
Experimental: as §1, §5

MCF7 cells [9] = test: as above; conditions: MCF7, concentrations above 0.1 μM
Experimental: as §1, §5

MEC-1 cells [10] = test: as above; conditions: MEC-1, concentrations above 0.1 μM
Experimental: as §1, §5

H929 cells [11] = test: Annexin V/propidium iodide in vitro apoptosis (cytotoxicity) assay; conditions: H929, 72 h
Experimental: as §1, §2, §3

MDA-MB-231 cells [12] = test: as above; conditions: MDA-MB-231, 72 h, peptides 0.1 nM to 1 μM
Experimental: as §1, §2, §3

MCF7 cells [13] = test: as above; conditions: MCF7, 72 h, peptides 0.1 nM to 1 μM
Experimental: as §1, §2, §3

primary CLL cells [14] = test: as above; conditions: for apoptosis (cytotoxic effect): primary CLL cells derived from patients, 72 h
Experimental: as §1, §2, §3

MEC-1 cells [15] = test: as above; conditions: MEC-1, 72 h
Experimental: as §1, §2, §3

KG1a cells [16] = test: Transwell migration assay; conditions: for migration: 1 μM peptide, 24 h transwell, vs no peptide control
Experimental: (§6) The acute myeloid leukaemia (AML) KG1a cell line was maintained in RPMI medium (Invitrogen) supplemented with 100 units/ml penicillin, 100 μg/ml streptomycin and 5% foetal calf serum. The multiple myeloma (MM) cell line JJN3, the two breast cancer cell lines (MCF7 and MDA-MB-231), the primary chronic lymphocytic leukaemia cells and normal B-lymphocytes were maintained in RPMI medium supplemented with 100 units/ml penicillin, 100 μg/ml streptomycin and 5% foetal calf serum. In addition, 100 μM of acetylcholine was added to the culture media to ensure that the availability of acetylcholine was not a limiting factor in these experiments.
as §4

MDA-MB-231 cells [17] = test: Transwell migration assay; conditions: for migration: MDA-MB-231, 1 μM peptide, 24 h transwell, vs no peptide control
Experimental: as §6, §4

MCF7 cells [18] = test: Transwell migration assay; conditions: for migration: MCF7, 1 μM peptide, 24 h transwell, vs no peptide control
Experimental: as §6, §4

primary CLL cells [19] = test: Transwell migration assay; conditions: for migration: primary CLL cells from 10 patients, 1 μM peptide, 24 h transwell
Experimental: as §6, §4

normal B-lymphocytes = test: Transwell migration assay; conditions: normal B-lymphocytes from healthy volunteers, 1 μM peptide, 24 h transwell
Experimental: as §6, §4

JJN3 cells [20] = test: Transwell migration assay; conditions: for migration: JJN3, 1 μM peptide, 24 h transwell, vs no peptide control
Experimental: as §6, §4

Row | Molecule | apoptosis (cytotoxic effect) (KG1a cells [1]) | apoptosis (cytotoxic effect) (H929 cells [11]) | apoptosis (cytotoxic effect) (primary CLL cells [14]) | apoptosis (cytotoxic effect) (MEC-1 cells [15]) | migration (KG1a cells [16]) | migration (MDA-MB-231 cells [17]) | migration (MCF7 cells [18]) | migration (primary CLL cells [19]) | migration (normal B-lymphocytes) | migration (JJN3 cells [20]) | further results
1 | Nc1ccn([C@@H]2O[C@H](CO)[C@@H](O)[C@@H]2O)c(=O)n1 [Ara-C, reference compound] | dose-response at concentrations above 0.1 μM | – | – | – | – | – | – | – | – | – | –
2 | CSCC[C@@H]1NC(=O)[C@H](Cc2ccc(O)cc2)NC(=O)[C@H](CO)NC(=O)[C@H](CO)NC(=O)[C@H](Cc2c[nH]c3ccccc23)NC(=O)[C@H](CCCNC(=N)N)NC(=O)[C@H](Cc2c[nH]cn2)NC(=O)[C@H](Cc2ccccc2)NC(=O)[C@H](CCC(=O)O)NC(=O)[C@H](C)NC(=O)[C@H](CCCCN)NC(=O)[C@H](Cc2c[nH]c3ccccc23)NC(=O)[C@H](Cc2c[nH]cn2)NC(=O)[C@H](C(C)C)NC1=O [NBP-14] (cyclo(AEFHRWSSYMVHWK)) | modest apoptotic effects | modest apoptotic effects | evidence of dose-response at concentrations above 0.1 μM | modest apoptotic effects | significantly inhibited | significantly inhibited | little effect | significant reduction in migration | significant reduction | significant inhibited | toxicity in normal (non-malignant) cells [2]: lack of toxicity; migration (H929 cells [3]): significant reduction in cell migration; migration (MEC-1 cells [4]): significant reduction in cell migration; proliferation (JJN3 cells [5]): anti-proliferative activity; proliferation (H929 cells [6]): reduced proliferation; proliferation (KG1a cells [7]): reduced proliferation; proliferation (MDA-MB-231 cells [8]; MDA-MB-231, peptide concentrations above 0.1 μM, compared with T15 control peptide): significant reduction in proliferation; proliferation (MCF7 cells [9]): not as significant; proliferation (MEC-1 cells [10]): reduced proliferation; apoptosis (cytotoxic effect) (MDA-MB-231 cells [12]): modest apoptotic effects; apoptosis (cytotoxic effect) (MCF7 cells [13]): relatively increased sensitivity; apoptosis (primary CLL cells [14]; primary CLL cells, at 1 μM): ~20%; migration (dose-response) (KG1a cells [16]; NBP-14 at concentrations ≥1 μM): significant decrease in migration; migration (dose-response) (MDA-MB-231 cells [17]; MDA-MB-231, NBP-14 at concentrations ≥1 μM): significant decrease in migration; migration (dose-response) (MCF7 cells [18]; MCF7, NBP-14 at concentrations ≥1 μM): failed to show a significant reduction in migration; sensitivity of primary CLL cells to anti-migratory effect compared with normal B-cells (primary CLL cells [19]; primary CLL cells vs normal B-cells, 24 h): significantly more sensitive; inhibition of migration compared with T30 (JJN3 cells [20]; JJN3, 1 μM, 24 h): significantly greater extent; migration (dose-response) (JJN3 cells [20]; JJN3, NBP-14 at concentrations ≥1 μM): significant decrease in migration
3 | Nc1nc(F)nc2c1ncn2[C@@H]1O[C@H](CO)[C@@H](O)[C@@H]1O [fludarabine, reference compound] | – | induced a dose-response | – | induced a dose-response | – | – | – | – | – | – | –
4 | Rituximab [reference compound] | – | – | more pronounced dose-response | – | – | – | – | – | – | – | –
5 | T15 (NQFDHYSKQDRCSDL; listed as Homo sapiens) [reference compound] | – | – | – | – | did not alter | – | Neither the T15 nor the T30 peptide showed a significant effect | did not significantly altered | no significant effect | no significant effect | –
6 | T30 (KAEFHRWSSYMVHWKNQFDHYSKQDRCSDL; listed as Homo sapiens) [reference compound] | – | – | – | – | did not alter | significantly inhibited | Neither the T15 nor the T30 peptide showed a significant effect | did not significantly altered | no significant effect | significant inhibited | proliferation (MDA-MB-231 cells [8]; MDA-MB-231, sub-nanomolar concentrations): increased proliferation; inhibition of migration compared with NBP-14 (MDA-MB-231 cells [17]; MDA-MB-231, 1 μM, 24 h): significantly less effective
